Experiment [1] concerns the target CK2α (Homo sapiens, UniProt P68400). The note with it: for ΔH / ΔS: ITC.
For experiment [2], the system named is 102 kinases. As to conditions: cited from earlier work.
For experiment [3], the system named is HCT116 cells. The experiment in a line: cells. As to conditions: Homo sapiens, HCT-116, 72 h.
The test system of experiment [4] is DAPK3. The note with it: read-out: IC50 DAPK3; ref J.Med. Chem. (2011) 54:2:635; cited from earlier work.
Experiment [5] deals with CLK3. The note with it: read-out: IC50 CLK3; ref PLOS ONE (2014) 9:4; cited from earlier work.
The test system of experiment [6] is FLT3. The note with it: read-out: IC50 FLT3; ref J.Med. Chem. (2011) 54:2:635; cited from earlier work.
Experiment [7] has as its system CDK2/Cyclin E. As to conditions: read-out: IC50 CDK2/Cyclin E; ref Eur. J. Med. Chem. (2014) 78:217-224; cited from earlier work.
Experiment [8] has as its system CK2α. The note with it: read-out: IC50 CK2α; ref J.Med. Chem. (2011) 54:2:635; cited from earlier work.
For experiment [9], the system named is HIPK3. As to conditions: read-out: IC50 HIPK3; ref J.Med. Chem. (2011) 54:2:635; cited from earlier work.
Experiment [10] concerns A549 cells. As to conditions: 72 hours.
The test system of experiment [11] is HCT116 cells. The note with it: 72 hours.
Experiment [12] deals with TBK1. The note with it: read-out: IC50 TBK1; ref J.Med. Chem. (2011) 54:2:635; cited from earlier work.
Experiment [13] has as its system CLK1. The note with it: read-out: IC50 CLK1; ref PLOS ONE (2014) 9:4; cited from earlier work.
In experiment [14] the test system is 238 kinases. The note with it: cited from earlier work.
Experiment [15] concerns PIM1. As to conditions: read-out: IC50 PIM1; ref J.Med. Chem. (2011) 54:2:635; cited from earlier work.
In experiment [16] the test system is AKT1 phosphoserine 129.
Experiment [17] concerns CDK1/Cyclin B. The note with it: read-out: IC50 CDK1/Cyclin B; ref J.Med. Chem. (2011) 54:2:635; cited from earlier work.
Experiment [18] relates to PIM2. As to conditions: read-out: IC50 PIM2; ref Biorg. Med. Chem. Lett. (2011) 21;22;6687; cited from earlier work.
In experiment [19] the test system is Cdc37 phosphoserine 13.
For experiment [20], the system named is Jurkat cells. The note with it: 72 hours.
Experiment [21] relates to CLK3. The note with it: read-out: IC50 CLK3; ref J.Med. Chem. (2011) 54:2:635; cited from earlier work.
The subject of experiment [22] is Jurkat cells. The experiment in a line: cells. The note with it: Homo sapiens, 72 h.
For experiment [23], the system named is PIM1. As to conditions: read-out: IC50 PIM1; ref Biorg. Med. Chem. Lett. (2011) 21;22;6687; cited from earlier work.
The test system of experiment [24] is A549 cells. Nature of the experiment: cells. The note with it: Homo sapiens, A549, 72 h.
Experiment [25] relates to HCT116, Jurkat and A549 cells. The note with it: A549 vs IC50 (for pro-CAM4066: IC50 of CAM4066).
Where [26] appears, read: HCT116, 2 × GI50, all time points (24, 48, 72 hours).

Like-named read-outs stand apart in the source and are kept apart here.

Sequence of CK2α (P68400 2-329): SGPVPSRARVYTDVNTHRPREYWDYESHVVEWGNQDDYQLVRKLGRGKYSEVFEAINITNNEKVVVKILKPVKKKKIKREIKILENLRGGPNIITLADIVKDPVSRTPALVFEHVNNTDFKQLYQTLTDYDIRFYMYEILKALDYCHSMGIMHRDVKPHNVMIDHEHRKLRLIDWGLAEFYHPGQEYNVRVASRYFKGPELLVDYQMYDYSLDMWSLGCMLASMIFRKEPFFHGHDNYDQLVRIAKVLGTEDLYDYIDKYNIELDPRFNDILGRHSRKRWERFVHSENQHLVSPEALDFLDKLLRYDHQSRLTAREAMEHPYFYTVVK

Turning to `Nc1cccc(C(=O)O)c1` [compound 6], in experiment [1], the “detectable binding by ITC” value is given as “no inhibition of phosphorylation at 500 μM or detectable binding by ITC”.

As for `O=C(O)c1ccc2c(c1)nc(Nc1cccc(C(F)(F)F)c1)c1nc(NC3CC3)ncc12` [CX5279], the “number of other kinases inhibited by 70% or greater” value in experiment [2] (0.5 μM, 102 kinases) is 4. In addition, in experiment [2] (larger literature panel), the Gini coefficient is on record as 0.755.

In experiment [1], `Cc1ccc(O)c(C(=O)O)c1` [compound 5] showed a ΔH of -7.722 kcal/mol and a ΔS of -6.51 cal/mol/deg.

In [1], `CCCOc1ccc(CN)cc1Cl.Cl` [compound 3] gave a ΔH of -5.047 kcal/mol and a ΔS of -2.28 cal/mol/deg.

In general, GI50 refers to the concentration that inhibits growth by half. High values mean lower sensitivity of the cells, low ones greater sensitivity of the cells. Turning to `O=C(O)c1ccc2c(c1)nc(Nc1cccc(Cl)c1)c1ccncc12` [CX4945], the GI50 in [3] came to 4.8 µM; in [10], 16.6 µM; in [11], 5 µM; in experiment [20], 4.7 µM; in [22] it was 5 µM; in [24], 17 µM. Further, the IC50 was 0.017 µM in experiment [4]; 0.09 µM in experiment [5]; 0.055 µM in experiment [6]; 1.8 µM in experiment [7]; […] in [8]; 0.045 µM in [9]. The IC50 was 0.035 µM in experiment [12]; 0.082 µM in experiment [13]; 0.046 µM in experiment [15]; 0.056 µM in experiment [17]; 0.186 µM in experiment [18]; 0.041 µM in experiment [21]. The IC50 in experiment [23] is 0.048 µM. Moreover, the “number of other kinases inhibited by 70% or greater” value in experiment [14] (0.5 μM, screen size 238 kinases) was 26. In addition, the “number of other kinases inhibited with nanomolar IC50 values” in experiment [14] is on record as “at least twelve”. Also, in [14] (larger literature panel), the Gini coefficient was […]. The “inhibition of the phosphorylation of AKT1 Ser129” value in [16] (setting [26]) was “very clear inhibition”. Further, the “inhibition of the phosphorylation of CDC37 Ser13” value in [19] (HCT116, 2 × GI50, 24 hours) is on record as “reduced inhibition”; in experiment [19] (setting [26]), “very clear inhibition”.

On to `COC(=O)c1cccc(NC(=O)CCNC(=O)CCNCc2ccc(-c3ccccc3)c(Cl)c2)c1` [pro-CAM4066], for which the GI50 in experiment [3] stood at 9 µM; in experiment [10] (listed as 8), 20.2 µM; in [11], 8.8 µM; in [20] (listed as 8), 6.3 µM; in [22] it was 6 µM; in experiment [24] it was 20 µM. Also, the “drop-off in the GI50 compared to the IC50” value in experiment [25] is given as 19-60 fold. Moreover, the “inhibition of the phosphorylation of AKT1 Ser129” value in [16] (HCT116, 2 × GI50, 24 hours) is “approximately 50%”. Further, the “inhibition of the phosphorylation of CDC37 Ser13” value in [19] (HCT116, 2 × GI50, 48 and 72 hours) is “the inhibition did increase”; in experiment [19] (HCT116, 2 × GI50, 24 hours), “no inhibition”.

Source of the values: publication PMC5355960, “Specific inhibition of CK2α from an anchor outside the active site” (Chemical Science, 2016).
